Test results reported in paper PMC12542965, “Remolding laccase for whole-cell and in vivo modulation of dopamine signal” (Science Advances, 2025).

Legend:
[1] = biological target: T1, RuCu-SLAC (remolded laccase) (Streptomyces coelicolor, UniProt Q9XAL8); test: UV-vis quinone formation at […] nm; assay type: biochemical; settings: 50 mM sodium phosphate, O2 as co-substrate, pH 6.0 to 8.0 (pH series); Ru-Cu artificial metal centre; T1 Cu quantified at 590 nm
T1 construct: gene SCO6712; artificial metalloenzyme: same apo-SLAC polypeptide (E. coli BL21(DE3), N-terminal GST tag cut off by PPase) loaded with Ru3+ then Cu2+; homodimer with one Ru and three Cu; Ru-Cu binuclear centre replaces the Cu trinuclear cluster
T1 sequence (Q9XAL8 34-343): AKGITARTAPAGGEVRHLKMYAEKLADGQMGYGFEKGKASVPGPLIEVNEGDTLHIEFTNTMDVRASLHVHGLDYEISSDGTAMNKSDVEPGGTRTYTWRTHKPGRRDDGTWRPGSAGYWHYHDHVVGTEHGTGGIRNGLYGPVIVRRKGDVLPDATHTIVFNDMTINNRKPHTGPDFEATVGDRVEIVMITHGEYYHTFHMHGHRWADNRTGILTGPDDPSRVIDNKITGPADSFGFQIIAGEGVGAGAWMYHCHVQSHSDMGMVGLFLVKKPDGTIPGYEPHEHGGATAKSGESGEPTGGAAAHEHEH

[2] = biological target: T2, native SLAC (bacterial small laccase) (Streptomyces coelicolor, UniProt Q9XAL8); test: UV-vis quinone formation at […] nm; assay type: biochemical; settings: 50 mM sodium phosphate, O2 as co-substrate, pH 6.0 to 8.0 (pH series); native Cu-reconstituted enzyme; T1 Cu quantified at 590 nm
T2 construct: gene SCO6712; reconstituted with CuCl2 (T1 Cu and T2/T3 Cu trinuclear cluster); trimer
T2 sequence (Q9XAL8 34-343): T1 sequence (Q9XAL8 34-343)

In the case of NCCc1ccc(O)c(O)c1 [dopamine], the Michaelis-Menten constants [1] was “Michaelis-Menten constants and Kcat (turnover number) of both enzymes with a dopamine substrate” and the Michaelis-Menten constants [2] was “Michaelis-Menten constants and Kcat (turnover number) of both enzymes with a dopamine substrate”.
